pEC50, pIC50, pKi: −log10 of the molar value. ≈ marks a conversion by molar mass, not a printed value.
Assays:
[1] = target: Transient receptor potential cation channel subfamily V member 1 (Homo sapiens, UniProt Q8NER1); experiment: Antagonist activity at TRPV1 (unknown origin)
physchem [2] = conditions: buffer
[3] = target: cGMP-specific 3',5'-cyclic phosphodiesterase (Homo sapiens, UniProt O76074); experiment: Inhibition of PDE5 (unknown origin) using FAM-cGMP or FAM-cAMP as substrate incubated for 60 mins and measured by fluorescence polarization assay
[4] = Lipophilicity, logD of compound; format: physicochemical; conditions: octanol/water
[5] = target: T1, Glucose-dependent insulinotropic receptor (Homo sapiens, UniProt Q8TDV5); experiment: Agonist activity at GPR119 (unknown origin); format: functional
T1 sequence (Q8TDV5 whole entry): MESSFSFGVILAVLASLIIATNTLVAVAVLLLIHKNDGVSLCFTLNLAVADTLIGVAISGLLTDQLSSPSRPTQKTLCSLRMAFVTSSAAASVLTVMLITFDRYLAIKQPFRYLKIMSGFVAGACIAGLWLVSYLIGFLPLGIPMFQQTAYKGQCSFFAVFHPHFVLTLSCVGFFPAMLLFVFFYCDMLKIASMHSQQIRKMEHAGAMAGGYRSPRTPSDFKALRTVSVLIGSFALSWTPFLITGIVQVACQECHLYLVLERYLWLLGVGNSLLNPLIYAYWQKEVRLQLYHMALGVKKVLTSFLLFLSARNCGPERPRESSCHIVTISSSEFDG

P2Y purinoceptor 12 = P2Y purinoceptor 12 (Homo sapiens, UniProt Q9H244); experiment: Antagonist activity at P2Y12 receptor in human platelet rich plasma; format: functional
Cannabinoid receptor 2 = Cannabinoid receptor 2 (Homo sapiens, UniProt P34972); experiment: Binding affinity towards human CB2 receptor
Hepatitis C virus = experiment: Antiviral activity against HCV GT1b-genotype; format: functional, organism-based, Hepacivirus hominis
[6] = buffer
[7] = target: 3',5'-cyclic-AMP phosphodiesterase 4D (Homo sapiens, UniProt Q08499); experiment: Inhibition of PDE4D (unknown origin)
[8] = target: Isocitrate dehydrogenase [NADP] cytoplasmic (Homo sapiens, UniProt O75874, R132H); experiment: Inhibition of IDH1 R132H mutant (unknown origin)
[9] = test system: Trypanosoma brucei brucei; experiment: Antitrypanosomal activity against Trypanosoma brucei brucei S427 incubated for 48 hrs by PrestoBlue dye based fluorescence assay; format: functional, organism-based; conditions: S427, 48 h
[10] = target: Tyrosine-protein kinase SYK (Homo sapiens, UniProt P43405); experiment: Inhibition of SYK (unknown origin)
[11] = Permeability of compound in human Caco-2 cells; format: ADME, cell-based; conditions: read-out: permeability
[12] = target: Metabotropic glutamate receptor 2 (Homo sapiens, UniProt Q14416); experiment: Positive allosteric modulation of mGlu2 receptor (unknown origin)
physchem [13] = conditions: octanol/water
[14] = target: Bifunctional epoxide hydrolase 2 (Homo sapiens, UniProt P34913); experiment: Inhibition of recombinant human sEH using CMNPC as substrate incubated for 10 mins and measured by fluorescence assay
[15] = test system: Mycobacterium tuberculosis; experiment: microbe, parasite or virus in culture
[16] = target: Epidermal growth factor receptor (Homo sapiens, UniProt P00533, L858R/T790M)
A549 = experiment: Antiproliferative activity against human A549 cells by MTT assay; format: functional, cell-based
Glutamate NMDA receptor = experiment: Antagonist activity at NMDA receptor in rat cortical wedges assessed as inhibition of NMDA-induced depolarization
[17] = target: Corticotropin-releasing factor receptor 1 (Homo sapiens, UniProt P34998); experiment: Antagonist activity at human CRF1 receptor; format: functional
[18] = Antagonist activity at GlyN receptor (unknown origin); set-up: species or system Homo sapiens
[19] = target: Glutamate receptor ionotropic AMPA (Homo sapiens, UniProt P42261+P42262+P42263+P48058); experiment: Antagonist activity at AMPA receptor (unknown origin); format: protein-complex assay
Staphylococcus aureus = experiment: Antibacterial activity against methicillin-resistant Staphylococcus aureus in in-vivo systemic infection model; format: functional
[20] = target: Histone-lysine N-methyltransferase EZH2 (Homo sapiens, UniProt Q15910, Y641N); experiment: Inhibition of EZH2 Y641N mutant (unknown origin)
Chain of Histone-lysine N-methyltransferase EZH2 (Q15910 whole entry Y641N): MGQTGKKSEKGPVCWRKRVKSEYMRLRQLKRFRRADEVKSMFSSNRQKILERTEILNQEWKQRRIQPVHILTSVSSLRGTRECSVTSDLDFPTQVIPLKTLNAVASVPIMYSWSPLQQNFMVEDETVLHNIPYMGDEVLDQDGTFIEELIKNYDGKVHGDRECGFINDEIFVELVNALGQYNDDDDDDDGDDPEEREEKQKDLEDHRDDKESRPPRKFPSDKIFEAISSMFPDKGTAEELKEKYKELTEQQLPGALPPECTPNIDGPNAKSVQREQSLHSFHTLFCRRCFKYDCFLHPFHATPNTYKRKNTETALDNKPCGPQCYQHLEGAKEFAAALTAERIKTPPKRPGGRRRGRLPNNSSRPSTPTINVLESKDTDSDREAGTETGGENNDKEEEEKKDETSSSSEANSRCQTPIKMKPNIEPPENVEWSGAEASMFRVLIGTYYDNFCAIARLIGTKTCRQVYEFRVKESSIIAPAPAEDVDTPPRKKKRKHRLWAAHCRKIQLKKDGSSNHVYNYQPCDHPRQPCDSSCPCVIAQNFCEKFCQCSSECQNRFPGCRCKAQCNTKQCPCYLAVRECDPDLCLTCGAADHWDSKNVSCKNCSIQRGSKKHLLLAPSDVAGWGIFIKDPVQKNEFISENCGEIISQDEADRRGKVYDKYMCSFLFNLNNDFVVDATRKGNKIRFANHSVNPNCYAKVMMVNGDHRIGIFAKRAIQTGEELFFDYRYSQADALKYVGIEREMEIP

Chain of 3',5'-cyclic-AMP phosphodiesterase 4D (Q08499 whole entry): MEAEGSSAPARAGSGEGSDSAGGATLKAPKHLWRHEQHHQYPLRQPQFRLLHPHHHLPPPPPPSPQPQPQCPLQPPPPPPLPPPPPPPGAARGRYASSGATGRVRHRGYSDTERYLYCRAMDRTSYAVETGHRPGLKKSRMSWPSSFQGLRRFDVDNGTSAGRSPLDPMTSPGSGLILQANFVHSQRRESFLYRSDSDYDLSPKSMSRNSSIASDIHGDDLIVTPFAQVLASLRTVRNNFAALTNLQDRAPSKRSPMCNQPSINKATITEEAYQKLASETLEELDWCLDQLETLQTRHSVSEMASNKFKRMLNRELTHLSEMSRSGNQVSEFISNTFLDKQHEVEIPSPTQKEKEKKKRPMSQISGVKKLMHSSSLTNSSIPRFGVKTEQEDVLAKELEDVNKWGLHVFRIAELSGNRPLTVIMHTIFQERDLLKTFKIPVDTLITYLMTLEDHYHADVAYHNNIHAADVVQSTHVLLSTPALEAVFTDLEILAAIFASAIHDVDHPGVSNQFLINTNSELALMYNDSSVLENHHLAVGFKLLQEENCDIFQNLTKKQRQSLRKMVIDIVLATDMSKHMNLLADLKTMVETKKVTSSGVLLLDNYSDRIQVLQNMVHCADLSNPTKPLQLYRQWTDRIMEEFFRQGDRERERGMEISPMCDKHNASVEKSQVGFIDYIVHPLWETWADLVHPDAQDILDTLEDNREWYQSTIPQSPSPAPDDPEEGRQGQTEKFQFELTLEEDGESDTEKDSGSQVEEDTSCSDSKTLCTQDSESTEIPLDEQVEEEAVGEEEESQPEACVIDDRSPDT
Chain of Metabotropic glutamate receptor 2 (Q14416 whole entry): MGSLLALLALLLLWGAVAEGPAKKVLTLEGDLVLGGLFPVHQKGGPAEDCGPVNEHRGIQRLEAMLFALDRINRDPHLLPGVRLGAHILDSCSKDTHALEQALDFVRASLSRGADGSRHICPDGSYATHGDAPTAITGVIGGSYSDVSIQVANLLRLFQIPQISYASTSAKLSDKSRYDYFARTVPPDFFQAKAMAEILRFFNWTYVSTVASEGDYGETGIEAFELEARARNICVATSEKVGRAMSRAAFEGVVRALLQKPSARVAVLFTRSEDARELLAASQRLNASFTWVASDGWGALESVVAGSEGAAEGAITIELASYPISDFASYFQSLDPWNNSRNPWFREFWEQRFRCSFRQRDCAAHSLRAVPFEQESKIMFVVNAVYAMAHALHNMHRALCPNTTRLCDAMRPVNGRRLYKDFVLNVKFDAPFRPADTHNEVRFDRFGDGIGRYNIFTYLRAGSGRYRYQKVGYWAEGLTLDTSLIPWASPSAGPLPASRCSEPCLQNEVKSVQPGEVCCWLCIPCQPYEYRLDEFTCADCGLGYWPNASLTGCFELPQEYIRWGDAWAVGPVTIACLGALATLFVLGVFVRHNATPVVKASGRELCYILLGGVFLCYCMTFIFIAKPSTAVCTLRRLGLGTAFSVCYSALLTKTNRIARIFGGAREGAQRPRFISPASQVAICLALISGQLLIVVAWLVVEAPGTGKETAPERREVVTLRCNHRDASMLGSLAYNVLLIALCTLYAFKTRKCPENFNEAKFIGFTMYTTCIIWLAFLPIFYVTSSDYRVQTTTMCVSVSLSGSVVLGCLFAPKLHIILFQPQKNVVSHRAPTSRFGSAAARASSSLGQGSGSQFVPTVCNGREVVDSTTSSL
Chain of Epidermal growth factor receptor (P00533 25-1210 T790M/L858R limits assumed): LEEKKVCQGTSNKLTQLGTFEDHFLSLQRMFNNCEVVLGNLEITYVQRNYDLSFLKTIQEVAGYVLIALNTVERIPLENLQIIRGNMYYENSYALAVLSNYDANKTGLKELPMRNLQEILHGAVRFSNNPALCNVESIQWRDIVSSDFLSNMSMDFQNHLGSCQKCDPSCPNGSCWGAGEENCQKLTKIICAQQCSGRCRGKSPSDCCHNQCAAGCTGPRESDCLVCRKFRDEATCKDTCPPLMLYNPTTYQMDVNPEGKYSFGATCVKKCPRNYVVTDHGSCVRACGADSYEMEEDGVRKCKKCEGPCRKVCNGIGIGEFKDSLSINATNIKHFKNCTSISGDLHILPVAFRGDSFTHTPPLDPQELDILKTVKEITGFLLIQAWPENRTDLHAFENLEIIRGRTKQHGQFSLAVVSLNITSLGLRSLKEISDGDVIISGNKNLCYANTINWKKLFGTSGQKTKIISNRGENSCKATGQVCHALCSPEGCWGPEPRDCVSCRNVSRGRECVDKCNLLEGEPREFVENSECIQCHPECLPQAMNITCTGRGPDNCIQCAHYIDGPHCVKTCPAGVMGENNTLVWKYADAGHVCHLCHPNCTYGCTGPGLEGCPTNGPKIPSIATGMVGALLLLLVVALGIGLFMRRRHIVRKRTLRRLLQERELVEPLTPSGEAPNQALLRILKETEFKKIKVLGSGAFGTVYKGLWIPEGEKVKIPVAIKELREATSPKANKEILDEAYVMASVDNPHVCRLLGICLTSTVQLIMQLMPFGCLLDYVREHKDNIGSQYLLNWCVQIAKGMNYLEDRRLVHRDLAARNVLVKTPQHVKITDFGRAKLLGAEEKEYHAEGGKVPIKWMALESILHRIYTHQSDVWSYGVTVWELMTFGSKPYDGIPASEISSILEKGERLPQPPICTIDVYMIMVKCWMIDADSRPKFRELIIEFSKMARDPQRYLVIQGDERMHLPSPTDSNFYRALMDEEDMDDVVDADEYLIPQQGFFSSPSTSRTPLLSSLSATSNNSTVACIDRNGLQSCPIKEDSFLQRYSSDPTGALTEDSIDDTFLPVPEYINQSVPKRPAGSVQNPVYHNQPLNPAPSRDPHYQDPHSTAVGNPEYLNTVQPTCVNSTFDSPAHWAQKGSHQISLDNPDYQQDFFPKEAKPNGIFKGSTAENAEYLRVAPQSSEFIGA
Chain of Bifunctional epoxide hydrolase 2 (P34913 whole entry): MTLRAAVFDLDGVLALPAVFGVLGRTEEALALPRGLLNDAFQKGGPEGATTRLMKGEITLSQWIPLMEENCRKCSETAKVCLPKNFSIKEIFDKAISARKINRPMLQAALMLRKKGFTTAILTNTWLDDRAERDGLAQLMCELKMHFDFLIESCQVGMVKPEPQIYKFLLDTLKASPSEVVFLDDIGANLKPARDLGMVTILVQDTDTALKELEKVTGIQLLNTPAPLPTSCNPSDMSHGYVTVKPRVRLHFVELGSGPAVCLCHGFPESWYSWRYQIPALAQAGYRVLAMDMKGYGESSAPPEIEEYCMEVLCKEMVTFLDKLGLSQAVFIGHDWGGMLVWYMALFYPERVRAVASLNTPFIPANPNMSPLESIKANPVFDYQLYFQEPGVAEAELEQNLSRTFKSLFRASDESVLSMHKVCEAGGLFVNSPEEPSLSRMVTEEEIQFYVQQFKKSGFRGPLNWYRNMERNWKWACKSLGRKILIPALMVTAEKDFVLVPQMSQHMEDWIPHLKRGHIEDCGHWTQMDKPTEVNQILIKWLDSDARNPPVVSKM
Chain of Isocitrate dehydrogenase [NADP] cytoplasmic (O75874 2-414 R132H limits assumed): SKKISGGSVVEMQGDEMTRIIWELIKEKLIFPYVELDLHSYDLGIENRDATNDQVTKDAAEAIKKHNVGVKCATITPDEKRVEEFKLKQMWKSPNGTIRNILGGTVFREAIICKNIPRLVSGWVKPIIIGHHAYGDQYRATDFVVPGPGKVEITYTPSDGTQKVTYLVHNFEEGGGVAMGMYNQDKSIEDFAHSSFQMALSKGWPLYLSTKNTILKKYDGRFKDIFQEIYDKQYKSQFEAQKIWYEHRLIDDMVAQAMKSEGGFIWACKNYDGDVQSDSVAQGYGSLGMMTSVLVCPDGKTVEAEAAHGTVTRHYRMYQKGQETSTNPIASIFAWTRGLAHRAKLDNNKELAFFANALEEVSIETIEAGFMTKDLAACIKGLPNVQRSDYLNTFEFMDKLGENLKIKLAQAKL
Chain of Corticotropin-releasing factor receptor 1 (P34998 whole entry): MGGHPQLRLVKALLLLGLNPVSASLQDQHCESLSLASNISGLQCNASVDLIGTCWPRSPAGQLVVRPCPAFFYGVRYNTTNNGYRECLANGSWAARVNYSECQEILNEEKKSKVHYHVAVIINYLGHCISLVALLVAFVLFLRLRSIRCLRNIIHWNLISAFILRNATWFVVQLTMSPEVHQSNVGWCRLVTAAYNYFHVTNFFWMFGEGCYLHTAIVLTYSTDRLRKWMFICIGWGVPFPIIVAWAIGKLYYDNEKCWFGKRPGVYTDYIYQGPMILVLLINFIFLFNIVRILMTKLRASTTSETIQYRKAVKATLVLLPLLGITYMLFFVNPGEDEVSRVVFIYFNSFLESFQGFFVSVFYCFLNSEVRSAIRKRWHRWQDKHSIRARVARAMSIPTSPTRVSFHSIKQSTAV

CC(=O)Nc1nc2c(Oc3cc(C4=CCC(C(F)(F)F)CC4)ncn3)cccc2s1 (stereo not drawn)
pIC50 [1]: 7.57 | solubility thermodynamic (physchem [2]): 13 µg/mL

COc1ccc(CNc2c(CO)cnc3c(C4CC4)cc(C#N)cc23)cc1Cl
pIC50 [3]: 9.43 | solubility thermodynamic (physchem [2]): 3.9 µM

CC(C)c1nc(N2CCN(c3ncc(OCc4ccncc4C#N)cn3)CC2)no1
logD [4]: 3.3 | pEC50 [5]: 8.22 | solubility thermodynamic (physchem [2]): 6 µM

CCOC(=O)c1cc(C#N)c(N2CCC(C(=O)NS(=O)(=O)Cc3ccccc3)CC2)nc1C
pIC50 (P2Y purinoceptor 12): 5.44 | solubility thermodynamic (physchem [2]): 2.99 µM

CCCCCn1c(=O)c(C(=O)NC23CC4CC(CC(C4)C2)C3)c(O)c2ccc(F)cc21
pKi (Cannabinoid receptor 2): 9.10 | solubility thermodynamic (physchem [2]): 1.5 µg/mL

COc1c(/C=C/c2ccc(NS(C)(=O)=O)cc2)cc(N2CCC(=O)NC2=O)cc1C(C)(C)C
pEC50 (Hepatitis C virus): 9.52 | Therm_solubility [6]: 20700 µg/mL

O=C(O)C1CCC(c2cc3cccnc3c(-c3cccc(F)c3)n2)CC1 (stereo not drawn)
pIC50 [7]: 7.49 | solubility thermodynamic (physchem [2]): 920 µg/mL

COc1nc(N[C@@H](C)c2cc3cc(Cl)ccc3[nH]c2=O)ncc1C#N
pIC50 [8]: 7.09 | solubility thermodynamic (physchem [2]): 10.5 µM

CN1CCCN(c2ncc(-c3ccc4c(Nc5cnccn5)ccnc4c3)cn2)CC1
pEC50 [9]: 7.89

CC(C)N1C[C@H]2C[C@@H]1CN2c1ccc(Nc2nc(-c3ccc4cn[nH]c4c3)cn3ccnc23)cc1
pIC50 [10]: 7.10 | solubility thermodynamic (physchem [2]): 0.216 µg/mL

Fc1ccc(C2CCC(c3ccn4c(CC5CC5)nnc4c3C(F)(F)F)CC2)c(F)c1 (stereo not drawn)
Papp [11]: 22 ×10⁻⁶ cm/s | pEC50 [12]: 7.11 | logP (physchem [13]): 4.2 | solubility thermodynamic (physchem [2]): 50 µg/mL

O=C(NC1=CC=CC1)NC12CC3CC(CC(C3)C1)C2
pIC50 [14]: 9.40 | solubility thermodynamic (physchem [2]): 0.1 µg/mL | MIC [15]: 0.01 µg/mL (≈ 0.0387 µM)

C=CC(=O)N1CCC(N2C(=O)N(c3ccccc3)Cc3cnc(Nc4ccc(N5CCN(C)CC5)c(C)c4)nc32)C1 (stereo not drawn)
pIC50 [16]: 8.04

CC[C@]1(OC(=O)CNC(=O)CCC(=O)O)C(=O)OCc2c1ccn(Cc1cnc3ccc4c(c3c1)C(=O)NC(C(C)C)O4)c2=O (stereo partly drawn)
pIC50 (A549): 5.19 | solubility thermodynamic (physchem [2]): 3400 µg/mL

CCC(c1c(Cl)c(Cl)cc2nc(O)c(O)nc12)n1cncn1 (stereo not drawn)
pIC50 (Glutamate NMDA receptor): 8.36 | solubility thermodynamic (physchem [2]): 10 µg/mL

CCCN(CC1CC1)c1cc(C)nc2c(-c3ccc(Cl)cc3Cl)c(C)nn12
pIC50 [17]: 7.12

CCOC(=O)CN(C)Cc1c(CC)c([N+](=O)[O-])cc2nc(O)c(O)nc12
pIC50 [18]: 6.33 | pIC50 [19]: 6.85 | solubility thermodynamic (physchem [2]): 150 µg/mL

CC(=O)NC[C@H]1CN(c2ccc(N3CCOCC3)c(F)c2)C(=O)O1 [LINEZOLID]
ED50 (Staphylococcus aureus): 5 mg/kg

COc1cc(C)[nH]c(=O)c1CN1CCc2c(Cl)cc([C@H](OC)C3COC3)c(Cl)c2C1=O [MEVROMETOSTAT]
pKi [20]: > 10.00

From ChEMBL document CHEMBL5120754, “Structural modification aimed for improving solubility of lead compounds in early phase drug discovery” (Bioorg Med Chem, 2022)
